Results as given in ChEMBL document CHEMBL4507276 (2021).

Tests used:
[1] = target: Ribosomal protein S6 kinase alpha-1 (Homo sapiens) (UniProt Q15418); conditions: Compound concentration 1000.0 nM
[2] = target: Mitogen-activated protein kinase 7 (Homo sapiens) (UniProt Q13164); conditions: Compound concentration 1000.0 nM
[3] = target: Mitogen-activated protein kinase kinase kinase kinase 5 (Homo sapiens) (UniProt Q9Y4K4); conditions: Compound concentration 1000.0 nM
[4] = target: Serine/threonine-protein kinase RIO3 (Homo sapiens) (UniProt O14730); conditions: Compound concentration 1000.0 nM
[5] = target: Mitogen-activated protein kinase kinase kinase kinase 3 (Homo sapiens) (UniProt Q8IVH8); conditions: Compound concentration 1000.0 nM
[6] = target: NUAK family SNF1-like kinase 2 (Homo sapiens) (UniProt Q9H093); conditions: Compound concentration 1000.0 nM
[7] = target: Serine/threonine-protein kinase Nek7 (Homo sapiens) (UniProt Q8TDX7); conditions: Compound concentration 1000.0 nM
[8] = target: T1, NUAK family SNF1-like kinase 1 (Homo sapiens) (UniProt O60285); conditions: Compound concentration 1000.0 nM
T1 sequence (whole entry): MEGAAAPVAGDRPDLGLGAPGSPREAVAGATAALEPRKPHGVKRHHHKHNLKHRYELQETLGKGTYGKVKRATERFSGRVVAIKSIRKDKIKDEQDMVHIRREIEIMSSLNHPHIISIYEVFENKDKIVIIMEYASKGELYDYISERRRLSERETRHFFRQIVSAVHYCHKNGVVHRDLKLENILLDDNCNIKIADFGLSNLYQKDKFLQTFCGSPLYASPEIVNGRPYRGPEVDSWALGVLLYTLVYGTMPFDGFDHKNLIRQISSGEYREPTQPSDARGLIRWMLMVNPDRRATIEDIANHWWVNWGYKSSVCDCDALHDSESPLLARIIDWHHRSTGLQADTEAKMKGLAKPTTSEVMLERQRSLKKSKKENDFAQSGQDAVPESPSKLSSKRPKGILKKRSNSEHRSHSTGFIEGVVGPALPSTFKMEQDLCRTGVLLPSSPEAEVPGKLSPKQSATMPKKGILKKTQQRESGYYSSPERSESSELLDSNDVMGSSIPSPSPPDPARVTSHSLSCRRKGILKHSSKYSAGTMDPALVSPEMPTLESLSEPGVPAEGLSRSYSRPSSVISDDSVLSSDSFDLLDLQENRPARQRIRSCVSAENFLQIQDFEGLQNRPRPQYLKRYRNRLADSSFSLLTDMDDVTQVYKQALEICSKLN

[9] = target: Ephrin type-B receptor 6 (Homo sapiens) (UniProt O15197); conditions: Compound concentration 1000.0 nM
[10] = target: Calcium/calmodulin-dependent protein kinase type II subunit alpha (Homo sapiens) (UniProt Q9UQM7); conditions: Compound concentration 1000.0 nM
[11] = tested on: Epidermal growth factor receptor (Homo sapiens), P00533 [G719C]; conditions: Compound concentration 1000.0 nM
[12] = target: Serine/threonine-protein kinase mTOR (Homo sapiens) (UniProt P42345); conditions: Compound concentration 1000.0 nM
[13] = target: Cyclin-dependent kinase 11B (Homo sapiens) (UniProt P21127); conditions: Compound concentration 1000.0 nM
[14] = target: Ribosomal protein S6 kinase alpha-6 (Homo sapiens) (UniProt Q9UK32); conditions: Compound concentration 1000.0 nM
[15] = target: T2, MAP/microtubule affinity-regulating kinase 4 (Homo sapiens) (UniProt Q96L34); conditions: Compound concentration 1000.0 nM
T2 sequence (whole entry): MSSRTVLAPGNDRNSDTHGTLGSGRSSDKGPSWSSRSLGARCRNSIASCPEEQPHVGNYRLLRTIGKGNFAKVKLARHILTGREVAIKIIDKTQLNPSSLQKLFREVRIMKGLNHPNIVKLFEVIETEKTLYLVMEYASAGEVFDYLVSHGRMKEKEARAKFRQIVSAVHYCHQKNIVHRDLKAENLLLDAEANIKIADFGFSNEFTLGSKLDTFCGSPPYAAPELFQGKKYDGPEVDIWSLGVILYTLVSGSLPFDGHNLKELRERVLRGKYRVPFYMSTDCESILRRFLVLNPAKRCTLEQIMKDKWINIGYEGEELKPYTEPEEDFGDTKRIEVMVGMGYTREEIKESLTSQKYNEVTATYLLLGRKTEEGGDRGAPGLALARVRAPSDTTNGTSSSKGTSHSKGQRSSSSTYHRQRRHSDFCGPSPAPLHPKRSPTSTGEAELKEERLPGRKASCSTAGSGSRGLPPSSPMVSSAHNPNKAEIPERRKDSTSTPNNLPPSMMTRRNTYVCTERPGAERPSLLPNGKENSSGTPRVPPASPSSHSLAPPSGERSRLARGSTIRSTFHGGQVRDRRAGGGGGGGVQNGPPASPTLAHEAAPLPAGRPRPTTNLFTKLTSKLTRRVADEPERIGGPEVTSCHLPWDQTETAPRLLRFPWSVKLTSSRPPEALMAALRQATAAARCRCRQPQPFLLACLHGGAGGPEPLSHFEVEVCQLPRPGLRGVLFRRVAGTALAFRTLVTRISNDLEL

[16] = target: MAP kinase-interacting serine/threonine-protein kinase 1 (Homo sapiens) (UniProt Q9BUB5); conditions: Compound concentration 1000.0 nM
[17] = tested on: Receptor-type tyrosine-protein kinase FLT3 (Homo sapiens), P36888 [UNDEFINED MUTATION]; conditions: Compound concentration 1000.0 nM
[18] = target: Serine/threonine-protein kinase PRP4 homolog (Homo sapiens) (UniProt Q13523); conditions: Compound concentration 1000.0 nM
[19] = target: Phosphatidylinositol 5-phosphate 4-kinase type-2 gamma (Homo sapiens) (UniProt Q8TBX8); conditions: Compound concentration 1000.0 nM
[20] = tested on: Tyrosine-protein kinase ABL1 (Homo sapiens), P00519 [F317I]; conditions: Compound concentration 1000.0 nM
[21] = target: Delta-type opioid receptor (Homo sapiens) (UniProt P41143); conditions: Compound concentration 10.0 uM
[22] = target: Calcium/calmodulin-dependent protein kinase type 1G (Homo sapiens) (UniProt Q96NX5); conditions: Compound concentration 1000.0 nM
[23] = target: Serine/threonine-protein kinase MRCK beta (Homo sapiens) (UniProt Q9Y5S2); conditions: Compound concentration 1000.0 nM

Sequence of Serine/threonine-protein kinase PRP4 homolog (Homo sapiens) (Q13523 whole entry): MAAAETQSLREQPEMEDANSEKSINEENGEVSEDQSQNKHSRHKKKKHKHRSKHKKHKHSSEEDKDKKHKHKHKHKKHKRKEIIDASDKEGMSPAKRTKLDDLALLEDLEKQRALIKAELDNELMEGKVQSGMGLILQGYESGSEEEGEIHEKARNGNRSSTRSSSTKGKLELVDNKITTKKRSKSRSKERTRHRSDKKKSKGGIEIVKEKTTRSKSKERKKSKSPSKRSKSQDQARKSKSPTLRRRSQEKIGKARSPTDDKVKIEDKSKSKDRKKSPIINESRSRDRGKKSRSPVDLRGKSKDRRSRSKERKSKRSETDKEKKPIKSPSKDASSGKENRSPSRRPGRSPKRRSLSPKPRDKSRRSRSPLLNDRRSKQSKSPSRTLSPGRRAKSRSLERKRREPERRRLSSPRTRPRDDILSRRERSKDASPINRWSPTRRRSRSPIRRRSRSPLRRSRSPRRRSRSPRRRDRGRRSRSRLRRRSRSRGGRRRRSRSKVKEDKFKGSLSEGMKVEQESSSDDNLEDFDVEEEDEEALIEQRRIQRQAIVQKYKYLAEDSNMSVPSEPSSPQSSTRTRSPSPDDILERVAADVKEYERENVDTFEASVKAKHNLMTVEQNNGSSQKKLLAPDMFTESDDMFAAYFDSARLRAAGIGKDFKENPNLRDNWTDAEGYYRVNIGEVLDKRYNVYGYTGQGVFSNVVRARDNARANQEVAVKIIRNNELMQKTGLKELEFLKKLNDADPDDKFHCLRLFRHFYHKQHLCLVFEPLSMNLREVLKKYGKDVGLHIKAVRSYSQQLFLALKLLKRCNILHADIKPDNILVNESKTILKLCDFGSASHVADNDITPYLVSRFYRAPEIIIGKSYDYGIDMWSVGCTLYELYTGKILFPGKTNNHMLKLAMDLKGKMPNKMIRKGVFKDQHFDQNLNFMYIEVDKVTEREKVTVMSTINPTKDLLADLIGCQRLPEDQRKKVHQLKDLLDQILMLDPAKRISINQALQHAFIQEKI
Sequence of Phosphatidylinositol 5-phosphate 4-kinase type-2 gamma (Homo sapiens) (Q8TBX8 whole entry): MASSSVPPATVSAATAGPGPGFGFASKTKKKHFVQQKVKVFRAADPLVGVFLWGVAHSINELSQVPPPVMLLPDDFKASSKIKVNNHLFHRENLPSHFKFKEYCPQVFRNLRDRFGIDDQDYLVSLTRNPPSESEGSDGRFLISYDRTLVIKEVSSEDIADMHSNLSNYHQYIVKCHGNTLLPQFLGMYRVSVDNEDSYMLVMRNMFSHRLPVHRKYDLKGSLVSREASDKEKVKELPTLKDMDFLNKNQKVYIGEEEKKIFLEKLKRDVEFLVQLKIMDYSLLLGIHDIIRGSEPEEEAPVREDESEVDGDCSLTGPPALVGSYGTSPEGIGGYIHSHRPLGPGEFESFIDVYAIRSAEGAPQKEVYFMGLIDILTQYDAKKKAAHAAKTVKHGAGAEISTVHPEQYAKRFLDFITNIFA
Sequence of Delta-type opioid receptor (Homo sapiens) (P41143 whole entry): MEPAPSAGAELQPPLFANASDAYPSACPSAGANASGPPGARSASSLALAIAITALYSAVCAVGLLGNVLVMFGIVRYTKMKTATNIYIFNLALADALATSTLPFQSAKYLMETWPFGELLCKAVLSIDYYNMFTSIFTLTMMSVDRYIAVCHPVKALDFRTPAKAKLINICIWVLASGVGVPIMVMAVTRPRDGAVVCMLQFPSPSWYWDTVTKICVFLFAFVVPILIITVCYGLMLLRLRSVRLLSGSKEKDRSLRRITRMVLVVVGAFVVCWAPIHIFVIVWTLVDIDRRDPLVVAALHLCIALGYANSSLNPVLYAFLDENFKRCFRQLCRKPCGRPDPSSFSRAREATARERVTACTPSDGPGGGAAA
Sequence of Ribosomal protein S6 kinase alpha-1 (Homo sapiens) (Q15418 whole entry): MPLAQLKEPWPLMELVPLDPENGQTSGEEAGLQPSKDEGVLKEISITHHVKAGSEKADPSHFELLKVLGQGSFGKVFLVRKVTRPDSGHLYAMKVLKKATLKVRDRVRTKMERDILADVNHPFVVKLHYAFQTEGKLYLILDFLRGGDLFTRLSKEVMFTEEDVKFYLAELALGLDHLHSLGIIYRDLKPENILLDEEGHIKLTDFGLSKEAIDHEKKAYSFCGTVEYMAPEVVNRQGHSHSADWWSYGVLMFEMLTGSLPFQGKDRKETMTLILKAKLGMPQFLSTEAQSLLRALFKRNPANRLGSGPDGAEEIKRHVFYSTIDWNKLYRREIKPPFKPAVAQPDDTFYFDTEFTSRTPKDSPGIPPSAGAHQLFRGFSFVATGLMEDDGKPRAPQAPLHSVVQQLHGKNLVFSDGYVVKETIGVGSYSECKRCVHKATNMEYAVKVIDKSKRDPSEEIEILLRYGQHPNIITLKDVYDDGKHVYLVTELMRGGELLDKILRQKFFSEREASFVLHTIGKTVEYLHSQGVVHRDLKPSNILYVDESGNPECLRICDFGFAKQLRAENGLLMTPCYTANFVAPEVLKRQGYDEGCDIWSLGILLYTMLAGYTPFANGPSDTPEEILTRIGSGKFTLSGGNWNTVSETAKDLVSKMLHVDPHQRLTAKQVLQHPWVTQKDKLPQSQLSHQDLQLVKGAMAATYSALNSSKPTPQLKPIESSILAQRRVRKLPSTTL
Sequence of Cyclin-dependent kinase 11B (Homo sapiens) (P21127 whole entry): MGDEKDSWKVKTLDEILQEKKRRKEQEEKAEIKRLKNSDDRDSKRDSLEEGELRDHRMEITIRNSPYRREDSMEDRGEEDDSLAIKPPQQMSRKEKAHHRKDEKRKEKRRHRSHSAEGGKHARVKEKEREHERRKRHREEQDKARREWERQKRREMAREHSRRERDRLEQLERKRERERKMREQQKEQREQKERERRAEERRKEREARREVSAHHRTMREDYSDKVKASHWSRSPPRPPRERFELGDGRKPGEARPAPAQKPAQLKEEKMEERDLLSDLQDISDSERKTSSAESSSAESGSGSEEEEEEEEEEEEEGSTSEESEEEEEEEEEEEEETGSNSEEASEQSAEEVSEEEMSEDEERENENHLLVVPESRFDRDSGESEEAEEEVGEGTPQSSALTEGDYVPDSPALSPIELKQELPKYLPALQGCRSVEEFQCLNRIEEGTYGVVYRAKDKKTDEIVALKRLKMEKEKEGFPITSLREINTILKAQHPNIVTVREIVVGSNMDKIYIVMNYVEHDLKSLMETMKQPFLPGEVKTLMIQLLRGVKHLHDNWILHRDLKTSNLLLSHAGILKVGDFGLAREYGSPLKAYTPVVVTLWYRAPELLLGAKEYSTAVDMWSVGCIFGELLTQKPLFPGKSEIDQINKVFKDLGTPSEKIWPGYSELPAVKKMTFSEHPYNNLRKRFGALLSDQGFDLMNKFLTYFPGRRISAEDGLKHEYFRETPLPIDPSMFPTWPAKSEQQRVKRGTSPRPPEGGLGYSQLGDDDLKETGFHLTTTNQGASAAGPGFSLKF
Sequence of Tyrosine-protein kinase ABL1 (Homo sapiens), P00519 [F317I] (P00519 whole entry F317I): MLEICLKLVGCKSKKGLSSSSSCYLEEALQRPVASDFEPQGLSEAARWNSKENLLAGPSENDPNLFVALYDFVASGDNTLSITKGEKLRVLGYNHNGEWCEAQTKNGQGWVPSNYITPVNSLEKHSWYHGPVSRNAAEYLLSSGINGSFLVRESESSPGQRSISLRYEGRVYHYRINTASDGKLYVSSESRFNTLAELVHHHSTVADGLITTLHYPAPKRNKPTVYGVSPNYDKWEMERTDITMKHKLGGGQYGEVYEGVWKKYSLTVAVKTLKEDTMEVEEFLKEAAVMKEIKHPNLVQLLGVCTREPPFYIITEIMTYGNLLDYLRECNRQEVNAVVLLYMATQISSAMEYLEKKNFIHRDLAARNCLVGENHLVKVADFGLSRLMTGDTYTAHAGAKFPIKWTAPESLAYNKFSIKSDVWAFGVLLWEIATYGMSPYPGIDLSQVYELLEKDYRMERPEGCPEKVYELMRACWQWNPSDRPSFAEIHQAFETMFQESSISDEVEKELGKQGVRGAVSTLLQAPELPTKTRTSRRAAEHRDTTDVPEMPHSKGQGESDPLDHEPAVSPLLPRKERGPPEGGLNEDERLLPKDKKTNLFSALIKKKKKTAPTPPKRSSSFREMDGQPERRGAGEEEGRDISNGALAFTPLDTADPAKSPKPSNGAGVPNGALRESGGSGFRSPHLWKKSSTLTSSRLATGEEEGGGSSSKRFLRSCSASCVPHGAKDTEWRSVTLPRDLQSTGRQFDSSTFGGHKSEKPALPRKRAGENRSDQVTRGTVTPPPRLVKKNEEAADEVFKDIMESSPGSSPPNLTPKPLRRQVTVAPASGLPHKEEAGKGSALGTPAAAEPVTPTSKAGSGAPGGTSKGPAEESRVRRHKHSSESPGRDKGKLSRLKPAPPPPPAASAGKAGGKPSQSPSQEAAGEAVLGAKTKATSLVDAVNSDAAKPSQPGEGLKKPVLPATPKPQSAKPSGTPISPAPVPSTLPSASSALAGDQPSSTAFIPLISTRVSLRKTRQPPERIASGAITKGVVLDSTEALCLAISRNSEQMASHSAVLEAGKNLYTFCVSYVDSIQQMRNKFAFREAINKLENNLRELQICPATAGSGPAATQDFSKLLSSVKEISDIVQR
Sequence of MAP kinase-interacting serine/threonine-protein kinase 1 (Homo sapiens) (Q9BUB5 whole entry, looked up): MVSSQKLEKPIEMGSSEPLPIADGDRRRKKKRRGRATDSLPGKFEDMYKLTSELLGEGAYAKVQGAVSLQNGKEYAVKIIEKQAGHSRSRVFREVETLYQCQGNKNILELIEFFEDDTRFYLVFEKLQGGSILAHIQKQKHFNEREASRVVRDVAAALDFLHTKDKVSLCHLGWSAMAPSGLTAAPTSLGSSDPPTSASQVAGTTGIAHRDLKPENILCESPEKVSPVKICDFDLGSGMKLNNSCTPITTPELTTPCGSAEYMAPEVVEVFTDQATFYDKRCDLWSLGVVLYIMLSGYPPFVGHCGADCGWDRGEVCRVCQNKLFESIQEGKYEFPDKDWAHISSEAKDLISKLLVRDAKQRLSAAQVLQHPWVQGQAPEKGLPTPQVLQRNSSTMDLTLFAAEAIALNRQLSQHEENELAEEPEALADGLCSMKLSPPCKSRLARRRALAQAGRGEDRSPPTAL

CN(C)C(=O)Cn1cc(-c2nc(C3(c4ccc(-c5cnc(N)nc5)cc4)CC3)no2)cn1 [BI 0153]
inactive: residual activity [1] 100% | residual activity [2] 97% | residual activity [3] 89% | residual activity [4] 89% | residual activity [5] 89% | residual activity [6] 87% | residual activity [7] 100% | residual activity [8] 82% | residual activity [9] 93% | residual activity [10] 100% | residual activity [11] 100% | residual activity [12] 91% | residual activity [13] 96% | residual activity [14] 83% | residual activity [15] 96% | residual activity [16] 85% | residual activity [17] 100% | residual activity [18] 87% | residual activity [19] 100% | residual activity [20] 90% | inhibition [21] -5.53% | residual activity [22] 100% | residual activity [23] 85%

CN(C)C(=O)Cn1cc(-c2nc([C@@](C)(c3ccc(-c4cnc(N)nc4)cc3)C3CC3)no2)cn1 [BI 665915]
inactive: residual activity [1] 99% | residual activity [2] 90% | residual activity [3] 86% | residual activity [4] 100% | residual activity [5] 100% | residual activity [6] 83% | residual activity [7] 90% | residual activity [8] 100% | residual activity [9] 76% | residual activity [10] 96% | residual activity [11] 85% | residual activity [12] 100% | residual activity [13] 79% | residual activity [14] 96% | residual activity [15] 95% | residual activity [16] 85% | residual activity [17] 100% | residual activity [18] 86% | residual activity [19] 100% | residual activity [20] 100% | inhibition [21] -7.13% | residual activity [22] 100% | residual activity [23] 99%
